Measured values: patent US9089587B2, “Treatment of papulopustular rosacea with ivermectin” (Galderma S.A., priority 2013, dated 2015)

Columns and labels:
[1] = tested on: subjects with moderate or severe papulopustular rosacea; test: Study 1 and Study 2: once-daily ivermectin 1% cream vs vehicle, first part, 12 weeks (Example 3); format: in vivo, human
Description: Both studies were conducted in accordance with the ethical principles of the Declaration of Helsinki and Good Clinical Practices, and in compliance with local regulatory requirements.
Each study had three parts. In the first part of the study, subjects with PPR were treated with ivermectin 1% cream (IVM 1%) or vehicle once daily at bedtime for 12 weeks. In the second part of the study, subjects initially treated with IVM 1% once daily at bedtime continued the same treatment, while subjects treated with the vehicle once daily switched to topical treatment with azelaic acid 15% gel twice daily, in the morning and evening. The third part of the study consisted of 4 weeks safety follow-up, without treatment. […]
Efficacy assessments at each visit were the IGA of disease severity, and inflammatory lesion counts (papules and pustules) on each of the five facial regions (forehead, chin, nose, right cheek, left cheek). Safety assessments included adverse events (AEs) throughout the study, local tolerance parameters (stinging/burning, dryness, itching) at each study visit evaluated on a 4-point scale [from 0 (none) to 3 (severe)], and laboratory parameters (hematology and biochemistry) measured before and after treatment. […]

[2] = tested on: subjects with moderate or severe papulopustular rosacea; test: Ivermectin 1% cream vs metronidazole 0.75% cream, Period A, 16 weeks (Example 4); format: in vivo, human; conditions: week 12 (highest difference)
From the text: Study visits during Period A were as follows: a screening visit, and at baseline, weeks 3, 6, 9, 12 and 16.
Eligible subjects were 18 years or older, with moderate or severe papulopustular rosacea as noted by an IGA of 3 (“several small or large papules/pustules, moderate erythema”) or 4 (“numerous small and/or large papules/pustules, severe erythema”), and presenting with 15-70 facial inflammatory lesions (papules and pustules).
The subjects were instructed to maintain a consistent lifestyle throughout the study regarding rosacea triggers (i.e. avoiding environmental factors, certain foods, and excessive sun exposure).
Efficacy assessments at each visit were inflammatory lesion counts (papules and pustules) counted on five facial regions (forehead, chin, nose, right cheek, left cheek), and the Investigator's Global Assessment (IGA) of disease severity. Safety assessments included adverse events (AEs) throughout the study, local tolerance parameters (stinging/burning, dryness, itching) at each visit evaluated on a 4-point scale (from 0 (none) to 3 (severe)), and laboratory parameters measured at baseline, weeks 9 and 16. Other assessments included the subject's evaluation of rosacea improvement compared to their condition at baseline, and subject's appreciation questionnaire at the end of the study (regarding satisfaction with the study drug). […]

**Q.** With “5-O-demethyl-22,23-dihydroavermectin A1a plus 5-O-demethyl-25-de(1-methylpropyl)-25-(1-methylethyl)-22,23-dihydroavermectin A1a [ivermectin]” as the substance, how does the “median reduction from baseline in inflammatory lesion counts” value ([1]; Study 1, week 2) read?
**A.** The value was “about 30%”.

**Q.** What about the “median reduction from baseline in inflammatory lesion counts” value ([1]; Study 2, week 2) of the same substance?
**A.** Its value is 27.3%.

**Q.** What about the “difference in IGA success rate, ivermectin superior to metronidazole” value [2] of the same substance?
**A.** The value was 14.9%.
